The values that follow come from patent publication US9808434B2, “Compound for treating cancer and diabetes” (CITY OF HOPE, priority 2011, dated 2017).

The subject of series [1] is undifferentiated 3T3-L1 cells. Briefly: Preadipocyte viability, MTT assay. In kind it is cell-based, mouse. The following applies: 3 days, 2.5-25 μM. The procedure: Undifferentiated 3T3-LI cells were treated with COH-SR2, COH-SR3, COH-SR4, COH-SR7, LR23 or LR59 for 3 days at a concentration of 2.5 μM, 5 μM, 10 μM, 15 μM, 20 μM, or 25 μM. The cell viability for each treatment was determined by MTT assay (FIG. 7).

Series [2] concerns cyclin D1, cyclin E2, CDK2, CDK4, p21WAF1/Cip1, p27Kip1. Briefly: HL-60 cell cycle regulatory proteins, Western blot. The format is cell-based, human. The following applies: 24 hours, 0.5-3 μM. How it is done: HL-60 cells were treated without or with COH-SR4 or COH-SR9 at a concentration of 0.5 μM, 1 μM, 2 μM, or 3 μM for 24 hours. Then the total cell lysates from the treated cells or untreated cells were resolved under electrophoresis and immunoblotted with antibodies against cyclin D1, cyclin E2, CDK2, CDK4, p21WAF1/Cip1, p27Kip1, and β-actin. β-actin served as an internal control. Densitometric quantitation was performed on each blot and the arbitrary numbers above each band represent the fold increase/decrease compared with untreated control. […] These kinase inhibitors are known to interfere with cell cycle progression to cause phase-specific cycle arrest by perturbing the phosphorylation process through direct interaction with their target proteins (cyclins or CDK).

Series [3] concerns NCI-60 human tumor cell lines. As to the kind of experiment: NCI-60 DTP Human Tumor Cell Line Drug Screening. The format is cell-based. The following applies: leukemia, NSCLC, colon, CNS, melanoma, ovarian, renal, prostate, breast lines. From the text:
Moreover, preliminary data from the NCI-60 DTP Human Tumor Cell Line Drug Screening (http://dtp.nci.nih.gov/branches/btb/ivclsp.html) further confirmed the observations on these COH-SR compounds. […] A value of 100 meant no growth inhibition. A value of 20 meant 80% growth inhibition. A value of 0 meant no net growth over the course of the experiment. A value of −40 meant 40% lethality. A value of −100 meant all cells were dead.

The test system of series [4] is isolated mouse liver mitochondria. As to the kind of experiment: Oxygen consumption rate in isolated liver mitochondria. The following applies: increasing concentrations.
Description: Mitochondria were isolated from the livers of 10 week old male C57BL/6 mice. Mice were euthanized by CO2 inhalation followed by cervical dislocation. Livers were removed, minced with scissors, and immediately placed in ˜10 volumes of ice-cold mitochondria isolation medium (250 mM sucrose, 10 mM Tris-HCl, 1 mM EGTA, 1% fatty acid/endotoxin-free BSA, pH 7.4). The presence of BSA in the medium allowed the endogenous free fatty acids to be chelated from the homogenate suspension. The tissues were homogenized using 25-30 strokes in Potter-Elvehjem tissue grinder. Following centrifugation at 800×g for 10 min at 4° C., the fats/lipids were carefully aspirated, and the remaining supernatant was filtered through sterile 0.40 micron nylon mesh membrane and centrifuged at 8,000×g for 10 min at 4° C. […] The mitochondrial protein concentration was determined by the DC Protein Assay kit (Bio-Rad, Hercules, Calif.) with BSA as a standard. […]
Isolated mouse liver mitochondria (2 μg/well or 5 μg/well) were seeded on Seahorse 96-well plate, and respiration (OCR) was measured on mitochondria respiring either on pyruvate (10 mM) and malate (2 mM) or succinate (10 mM) and rotenone (2 μM) using a Seahorse 96 Flux Analyzers according to Rogers et al (90).
Series [5] deals with normal human aortic vascular smooth muscle cells (HAVSMC). As to the kind of experiment: MTT assay, HAVSMC. The format is cell-based. How it is done:
Cell density measurements were performed using a hemocytometer to count reproductive cells resistant to staining with trypan blue. Approximately 20,000 cells were plated into each well of 96-well flat-bottomed micro-titer plates. After 12 h or 24 h incubation at 37° C., medium containing either COH-SR4 (ranging 0-200 μM) or elesclomol (ranging 0-20 μM) were added to the cells. After 24 h, 48 h or 96 h incubation, 20 μL of 5 mg/mL MTT were introduced to each well and incubated for 2 h. The plates were centrifuged and medium was decanted. Cells were subsequently dissolved in 100 μl DMSO with gentle shaking for 2 h at room temperature, followed by measurement of OD570 (91).

The subject of the next series is U251. Briefly: Glioma ATP viability assay, U251. The format is cell-based. The following applies: Homo sapiens, U-251, 72 h. How it is done: Cells of each cell line (U251, U87, PBT-017, PBT018, PBT003 and PBT028) were treated with various concentrations (0˜100 μM) of COH-SR4 for 72 hours. Cell viabilities were determined by ATP viability assays. Data were represented as a ratio to vehicle (DMSO) control, and plotted as mean±SEM (n=12) obtained from 2˜3 experiments (FIG. 34A).
Cells of each cell line (U87, U251, PBT003 and PVT-017) were treated with various concentrations (0˜100 μM) of COH-SR4 for 72 hours. Cell viabilities were determined by ATP viability assays. Data were represented as a ratio to vehicle (DMSO) control, and plotted as mean±SEM (n=12) obtained from 2-3 experiments (FIG. 34B).
Cells of each cell line were treated with various concentrations (0˜100 μM) of COH-SR4 or various concentrations (0˜1000 μM) of TMZ for 72 hours. Cell viabilities were determined by ATP viability assays. Data were represented as a ratio to untreated cells as control, and plotted as mean±SEM (n=12) obtained from 2˜3 experiments (FIGS. 43A-B).

In another series the test system is 3T3-L1 cells. As to the kind of experiment: Intracellular triglyceride contents, AdipoRed Assay. The format is cell-based, mouse. The following applies: 7 days in DM + compound. The procedure: Intracellular triglyceride contents were measured using AdipoRed Assay™ and the results were shown in relative fluorescence units (RFU) in FIG. 5.
3T3-L1 preadipocytes cells were treated with differentiating media (DM) with COH-SR4 (1 μM, 3 μM, or 5 μM) or without for 7 days. […] As used in FIG. 9C, U=undifferentiated, D=differentiated with cocktail media.

A further series concerns HL-60 cells. As to the kind of experiment: HL-60 apoptosis, Annexin V-PI double staining. The format is cell-based, human. The following applies: 3 μM, 48 hours. The procedure:
HL-60 (5×10^5) cells were incubated with a test compound (COH-SR4 or COH-SR9), ATRA, or nothing (Control) for 48 hours, washed and harvested. The cells were then fixed and double stained with Annexin V-FITC and propodium iodide (PI) and analyzed by flow cytometry. Conjugation of Annexin V and PI staining was used to identify apoptosis cells (early stage and late stage), normal/viable cells and necrotic cells. The percentage distribution of normal/viable (R3, lower left quadrant), early apoptotic (R4, lower right quadrant), late apoptotic (R2, upper right quadrant) and necrotic cells (R1, upper left quadrant) was calculated using Summit software. The percentages of apoptotic cells after treatment with various doses of each compound are shown in FIGS. 16A-H. Both COH-SR4 and COH-SR9 treatment of HL-60 cells increased the number of early apoptotic and late apoptotic cells in a dose-dependent manner compared with untreated cells. At 3 μM, overall apoptotic cells were ˜60% and 40% for COH-SR4 and COHSR9, respectively.

“Also recorded” adds a separate entry of the source.

One may read the IC50 as the point on the concentration scale where inhibition reaches its midpoint. Low values mean inhibition by little substance, high ones a need for much substance. In the case of `O=C(Nc1cc(Cl)cc(Cl)c1)Nc1cc(Cl)cc(Cl)c1` [COH-SR4, 1,3-bis(3,5-dichlorophenyl) urea], the “growth of undifferentiated preadipocytes (MTT)” value in series [1] was “inhibited growth of undifferentiated 3T3-L1 cells”. Moreover, in series [2], the “protein levels of CDK inhibitors p21WAF1/Cip1 and p27Kip1” value is “upregulated”. In addition, in series [2], the “protein levels of cyclin D1, cyclin E2, CDK2 and CDK4” value was “dose-dependent reduction in the protein levels of cyclin D1, cyclin E2, CDK2 and CDK4”. Further, in series [3], the “activity in NCI-60 screening” value was “active against”. Further, the “OCR of mitochondria respiring on pyruvate and malate or succinate-rotenone” value in series [4] is “dose-dependently increased OCR of mitochondria”. Moreover, the “cytotoxicity in normal cells” value is on record as “did not cause any significant cytotoxicity” in series [5] (96 h) and “did not exert any significant cytotoxicity” in series [5] (concentrations effective in lung cancer cell lines, 48 h). The IC50 with U251 (Table 1) stood at 2100 nM; in the series on U251 (Table 2) it was 2000 nM. In addition, the “intracellular triglyceride contents (AdipoRed Assay)” value in the series on 3T3-L1 cells was “decreased intracellular triglyceride contents; also recorded: dose-dependently reduced”. In the series on HL-60 cells, the overall apoptotic cells is recorded as around 60%.

In the case of `Cc1c(Cl)cc(NC(=O)Nc2cc(Cl)cc(Cl)c2)c(O)c1Cl` [COH-SR9, 1-(3,5-dichlorophenyl)-3-(3,5-dichloro-2-hydroxy-4-methyphenyl) urea], in series [2], the “protein levels of CDK inhibitors p21WAF1/Cip1 and p27Kip1” value is listed as “upregulated”; the “protein levels of cyclin D1, cyclin E2, CDK2 and CDK4” value is “dose-dependent reduction in the protein levels of cyclin D1, cyclin E2, CDK2 and CDK4”. Further, the “activity in NCI-60 screening” value in series [3] was “active against”. The compound further showed an overall apoptotic cells in the series on HL-60 cells of 40%.
